For 32 compounds, IC50 results are on record in BindingDB's records for doi:10.1021/jm00397a034 (Hoffmann-La Roche, 1988).

pIC50: −log10 of the molar value. Some results are limits rather than exact numbers.

In one test the target is Platelet-activating factor receptor (Canis familiaris). Kind of test: ChEBML_158835. As to the method:
Ability to inhibit platelet activating factor (PAF) binding to platelets by 50% was determined by using [3H]PAF as radioligand
The pIC50 is −log10 of the IC50, conventionally taken in molar units. A lower pIC50 goes with a large IC50. `CC(C)c1ccc2nc3ccc(C(=O)N[C@@H](C)CCCc4cccnc4)cn3c(=O)c2c1` [2-Isopropyl-11-oxo-11H-pyrido[2,1-b]quinazoline-8-carboxylic acid (1-methyl-4-pyridin-3-yl-butyl)-amide] showed a pIC50 of 6.22.
As to `CC(CCCc1cccnc1)NC(=O)c1ccc2nc3ccc(C(C)C)cc3c(=O)n2c1` (configuration not stated), the pIC50 was 6.40.
The same measure, in the same setting: then `CC(C)c1ccc2nc3ccc(C(=O)N[C@H](C)CCCc4cccnc4)cn3c(=O)c2c1` [2-Isopropyl-11-oxo-11H-pyrido[2,1-b]quinazoline-8-carboxylic acid (1-methyl-4-pyridin-3-yl-butyl)-amide], with 6.60.

Target in a further test: not listed separately
Kind of test: Ability to inhibit platelet activating factor (PAF) binding to platelets by 50% was determined by using [3H]PAF as radioligand.
With `CC(C)c1ccc2nc3ccc(CCCCCCc4cccnc4)cn3c(=O)c2c1` [2-Isopropyl-8-(6-pyridin-3-yl-hexyl)-pyrido[2,1-b]quinazolin-11-one], the pIC50 is under 6.00.
`CC(C)c1ccc2nc3ccc(C(=O)NCCCCCCc4cncnc4)cn3c(=O)c2c1` [2-Isopropyl-11-oxo-11H-pyrido[2,1-b]quinazoline-8-carboxylic acid (6-pyrimidin-5-yl-hexyl)-amide] gave a pIC50 of 6.70.
Same read-out and setting: next, `CC(C)c1ccc2nc3ccc(S(=O)(=O)NCCCCc4cccnc4)cn3c(=O)c2c1` [2-Isopropyl-11-oxo-11H-pyrido[2,1-b]quinazoline-8-sulfonic acid (4-pyridin-3-yl-butyl)-amide]: under 6.00.
`Cc1cc2nc3ccc(C(=O)NCCCCc4cnc[n+](C)c4)cn3c(=O)c2cc1C` [5-{4-[(2,3-Dimethyl-11-oxo-11H-pyrido[2,1-b]quinazoline-8-carbonyl)-amino]-butyl}-1-methyl-pyrimidin-1-ium] gave a pIC50 of under 6.00.
With `CC(C)c1ccc2nc3ccc(C(=O)NCCCCc4cncnc4)cn3c(=O)c2c1`, the pIC50 was 6.35.
On the same count and under the same terms, next, `Cc1cc2nc3ccc(C(=O)NCCCCCC[n+]4ccccc4)cn3c(=O)c2cc1C` [1-{6-[(2,3-Dimethyl-11-oxo-11H-pyrido[2,1-b]quinazoline-8-carbonyl)-amino]-hexyl}-pyridinium]: under 6.00.
Same read-out and setting: next, `COc1ccc2nc3ccc(C(=O)NCCCCc4cccnc4)cn3c(=O)c2c1`: 6.00.
Still for that read-out and setting: next, `CC(C)c1ccc2nc3ccc(C(=O)NC(C)(C)CCCc4cccnc4)cn3c(=O)c2c1`: 5.92; `CC(C)c1ccc2nc3ccc(C(=O)NCCCCc4ccncc4)cn3c(=O)c2c1`: 5.89; `Cc1cc2nc3ccc(C(=O)NCCCCc4ccc[n+](C)c4)cn3c(=O)c2cc1C` [3-{4-[(2,3-Dimethyl-11-oxo-11H-pyrido[2,1-b]quinazoline-8-carbonyl)-amino]-butyl}-1-methyl-pyridinium]: under 6.00.
In turn, `O=C(NCCCCc1cccnc1)c1ccc2nc3cc(Cl)ccc3c(=O)n2c1` had a pIC50 of 6.00.
Still for that read-out and setting: next, `Cc1ccc2nc3ccc(C(=O)NCCCCc4cccnc4)cn3c(=O)c2c1`: 6.30.
The same measure, in the same setting: then `CC(C)c1ccc2nc3ccc(C(=O)OCCCCc4cccnc4)cn3c(=O)c2c1` [2-Isopropyl-11-oxo-11H-pyrido[2,1-b]quinazoline-8-carboxylic acid 4-pyridin-3-yl-butyl ester], with under 6.00; and `CC(C)c1ccc2nc3ccc(CNCCCCc4cccnc4)cn3c(=O)c2c1` [2-Isopropyl-8-[(4-pyridin-3-yl-butylamino)-methyl]-pyrido[2,1-b]quinazolin-11-one], with under 6.00; and `CC(C)Oc1ccc2nc3ccc(C(=O)NCCCCc4cccnc4)cn3c(=O)c2c1`, with 6.22.
On the same count and under the same terms, next, `COc1ccc2c(=O)n3cc(C(=O)NCCCCc4cccnc4)ccc3nc2c1`: 6.43; `CC(C)c1ccc2nc3ccc(C(=O)NCCCCc4ccccn4)cn3c(=O)c2c1`: 5.30.
On to `O=C(NCCCCc1cccnc1)c1ccc2nc3ccccc3c(=O)n2c1`, for which the pIC50 was 5.74.
On the same count and under the same terms, then `O=C(NCCCCc1cccnc1)c1ccc2nc3ccc(Br)cc3c(=O)n2c1`, with 6.15.
Compound `CC(C)c1ccc2nc3ccc(C(=O)NCCCCCCCc4cccnc4)cn3c(=O)c2c1` had a pIC50 of under 6.00.
Still for that read-out and setting: next, `CC(C)c1ccc2nc3ccc(C(=O)NCCCCCCc4cccnc4)cn3c(=O)c2c1`: 6.40.
Same read-out and setting: next, `CC(C)c1ccc2nc3ccc(C(=O)NCCCc4cccnc4)cn3c(=O)c2c1`: under 6.00; `O=C(NCCCCc1cccnc1)c1ccc2nc3ccc(O)cc3c(=O)n2c1`: 5.92.
Same read-out and setting: next, `CC(C)c1ccc2nc3ccc(C(=O)NCCCCCc4cccnc4)cn3c(=O)c2c1`: under 6.00.
With `CC(C)c1ccc2nc3ccc(C(=O)NCCCCc4cccnc4)cn3c(=O)c2c1`, the pIC50 was 6.46.
As for `Cc1cc2nc3ccc(C(=O)NCCCCc4cccnc4)cn3c(=O)c2cc1C`, the pIC50 was 6.60.
The same measure, in the same setting: next, `Cc1cc2nc3ccc(C(=O)NCCCCc4cncnc4)cn3c(=O)c2cc1C` [2,3-Dimethyl-11-oxo-11H-pyrido[2,1-b]quinazoline-8-carboxylic acid (4-pyrimidin-5-yl-butyl)-amide]: 7.00.
Same read-out and setting: then `CC(C)c1ccc2nc3ccc(C(=O)NCCc4cccnc4)cn3c(=O)c2c1`, with 5.60.
Take `CC(C)c1ccc2nc3ccc(C(=O)NCCCCn4ccnc4)cn3c(=O)c2c1`: the pIC50 is 5.46.
